Assay results reported in PubChem BioAssay AID1963870 (Molecular Pharmacology Branch, DTP, NCI, 2024).

System: 292921-168-R-J2-PDC KRAS tumor spheroid viability
Assay: Anticancer human tumor 292921-168-R-J2-PDC patient-derived pancreatic carcinoma cell line growth inhibition [KRAS2]
Conditions: spheroids with HUVEC and MSC; for IC50: curve of first compound; for viability, T/C: stronger effect = lower value; active = viability on the fitted dose curve at most 10% of control; inactive = the rest
From the text: Multicellular complex tumor spheroid response to RAS pathway inhibitors in combination with a targeted agents in patient-derived cell lines with oncogenic KRAS variants from multiple cancer types
A high-throughput screen of multi-cell type tumor spheroids was designed to identify active combinations of targeted small molecules and KRAS pathway inhibitors. Complex spheroids include a stromal component modeled by human endothelial cells (HUVEC) and fibroblasts modeled by human mesenchymal stem cells (MSCs). The concentration ranges selected for each drug and investigational agent were based upon clinically achievable concentrations if the clinical Cmax of the agent was known.
Compounds. The drugs and investigational agents: BI-3406 (NSC825286), BAY-293 (NSC824723), batoprotafib (TNO155; NSC825523), sotorasib (AMG 510; NSC818433), MRTX1257 (NSC819558), elimusertib (BAY 1895344; NSC800525), molibresib (GSK525762; NSC774829), temuterkib (LY3214996; NSC803410), venetoclax (NSC766270), alisertib (NSC759677), olaparib (NSC753686), talazoparib (NSC767125), erdafitinib (NSC781556), ipatasertib (NSC767898), cabozantinib (NSC761068), nintedanib (NSC756659), abemaciclib (NSC768073), docetaxel (NSC628503), trametinib (NSC758246), and sapanisertib (NSC764658) were obtained from the National Cancer Institute (NCI) Developmental Therapeutics Program Chemical Repository. The FDA-approved anticancer drug set is available from the Developmental Therapeutics Program. […] The stock solutions were prepared in dimethyl sulfoxide (DMSO, Sigma-Aldrich, St. Louis, MO, cat. D2650) at 800-fold the tested concentration and stored at -70 degrees C prior to their use. All drugs and investigational agents were tested over a range starting from a high concentration at or near the clinical Cmax and decreasing in half-log increments. If the clinical Cmax for an agent had not been determined, the highest concentration tested was 10 microM.
Cell Culture. All cells were maintained in an incubator at 37 degrees C and 5% CO2 with 95% humidity. The PDC lines were cultured according to standard operating procedures established by the NCI PDMR (https://pdmr.cancer.gov/sops/default.htm). Briefly, all PDCs were thawed and cultured in Matrigel-coated flasks prepared with a working solution of 1X Ham's F-12 nutrient mix, without supplementation (Invitrogen, Waltham, MA, cat. 11765054), 100 U/mL penicillin-streptomycin (Invitrogen, cat. 15140122), and 2.5% Matrigel (Corning Inc., Corning, NY, cat. 354248) for the first three passages. All PDCs were cultured in complete DMEM/F-12 media containing advanced DMEM/F-12 (Invitrogen, cat. 12634028), 4.9% defined fetal bovine serum, heat inactivated (HyClone Laboratories Inc., Logan, UT, cat. SH30070.03HI), 389 ng/mL hydrocortisone (Sigma-Aldrich, cat. H4001), 9.7 ng/mL human EGF recombinant protein (Invitrogen, cat. PHG0313), 23.4 microg/mL adenine (Sigma-Aldrich, cat. A2786), 97.3 U/mL penicillin-streptomycin (Invitrogen, cat. 15140122), 1.9 mM L-glutamine (Invitrogen, cat. 25030081), and 9.7 microM Y-27632 dihydrochloride (Tocris Bioscience, Bristol, United Kingdom, cat. 1254). The PDCs were cultured in complete DMEM/F12 media without 9.7 microM Y-27632 dihydrochloride for at least two passages prior to the screen. The established cell line HOP-62 was cultured in RPMI 1640 medium, HEPES (Invitrogen, cat. 22400105) with 10% defined fetal bovine serum (HyClone Laboratories Inc., cat. SH30070.03) and 2 mM L-glutamine (Invitrogen, cat. 25030081). The pooled donor HUVEC were cultured in endothelial cell growth medium 2 (PromoCell, Heidelberg, Germany, cat. C-22011) and the hMSC were cultured in mesenchymal stem cell growth medium 2 (PromoCell, cat. C-28009). For all experiments, HUVEC and hMSC were used at passages </=5, while the malignant cell lines were used at passages </=15. […]

[1] = second compound 0.1 µM, first compound 0.0316 µM
[2] = second compound 0.1 µM, first compound 0.1 µM
[3] = second compound 0.1 µM, first compound 0.316 µM
[4] = second compound 0.1 µM, first compound 1 µM
[5] = second compound 0.1 µM, first compound 3.16 µM
[6] = second compound 0.316 µM, first compound 0.0316 µM
[7] = second compound 0.316 µM, first compound 0.1 µM
[8] = second compound 0.316 µM, first compound 0.316 µM
[9] = second compound 0.316 µM, first compound 1 µM
[10] = second compound 0.316 µM, first compound 3.16 µM
[11] = second compound 1 µM, first compound 0.0316 µM
[12] = second compound 1 µM, first compound 0.1 µM
[13] = second compound 1 µM, first compound 0.316 µM
[14] = second compound 1 µM, first compound 1 µM
[15] = second compound 1 µM, first compound 3.16 µM
[16] = second compound 3.16 µM, first compound 0.0316 µM
[17] = second compound 3.16 µM, first compound 0.1 µM
[18] = second compound 3.16 µM, first compound 0.316 µM
[19] = second compound 3.16 µM, first compound 1 µM
[20] = second compound 3.16 µM, first compound 3.16 µM
[21] = second compound 10 µM, first compound 0.0316 µM
[22] = second compound 10 µM, first compound 0.1 µM
[23] = second compound 10 µM, first compound 0.316 µM
[24] = second compound 10 µM, first compound 1 µM
[25] = second compound 10 µM, first compound 3.16 µM
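Note: drug exposure lasted seven days after spheroids formed for three days.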
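Throughout, for viability, T/C: percent of DMSO vehicle control viability which is 100%.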

CC(=O)OC12COC1CC(O)C1(C)C(=O)C(O)C3=C(C)C(OC(=O)C(O)C(NC(=O)OC(C)(C)C)c4ccccc4)CC(O)(C(OC(=O)c4ccccc4)C21)C3(C)C (configuration not stated) + C=CC(=O)N1CCN(c2nc(=O)n(-c3c(C)ccnc3C(C)C)c3nc(-c4c(O)cccc4F)c(F)cc23)C(C)C1
< 0.01 µM: IC50 (second compound 0.1 µM) | IC50 (second compound 0.316 µM) | IC50 (second compound 1 µM) | IC50 (second compound 3.16 µM) | IC50 (second compound 10 µM)
inactive: viability, T/C (second compound 0.1 µM, first compound 0.01 µM) 14.6% | viability, T/C [1] 15.4% | viability, T/C [2] 14.2% | viability, T/C [3] 12.3% | viability, T/C [4] 14.5% | viability, T/C [5] 17.3% | viability, T/C (second compound 0.316 µM, first compound 0.01 µM) 12.9% | viability, T/C [6] 17.1% | viability, T/C [7] 13% | viability, T/C [8] 13.1% | viability, T/C [9] 13.7% | viability, T/C [10] 18.3% | viability, T/C (second compound 1 µM, first compound 0.01 µM) 17.1% | viability, T/C [11] 17.5% | viability, T/C [12] 14.9% | viability, T/C [13] 12.9% | viability, T/C [14] 14.4% | viability, T/C [15] 19.1% | viability, T/C (second compound 3.16 µM, first compound 0.01 µM) 18.1% | viability, T/C [16] 18.2% | viability, T/C [17] 16.9% | viability, T/C [18] 15.7% | viability, T/C [19] 16.1% | viability, T/C [20] 17.9% | viability, T/C (second compound 10 µM, first compound 0.01 µM) 20.5% | viability, T/C [21] 18.4% | viability, T/C [22] 16.6% | viability, T/C [23] 15.3% | viability, T/C [24] 15.7% | viability, T/C [25] 17.2%

O=C(c1cc(Cc2n[nH]c(=O)c3ccccc23)ccc1F)N1CCN(C(=O)C2CC2)CC1 + C=CC(=O)N1CCN(c2nc(=O)n(-c3c(C)ccnc3C(C)C)c3nc(-c4c(O)cccc4F)c(F)cc23)C(C)C1
inactive: viability, T/C [1] 97.8% | viability, T/C [2] 87% | viability, T/C [3] 88% | viability, T/C [4] 84.1% | viability, T/C [5] 76.8% | viability, T/C (second compound 0.1 µM, first compound 10 µM) 41.9% | viability, T/C [6] 90.8% | viability, T/C [7] 82.1% | viability, T/C [8] 79.4% | viability, T/C [9] 85.9% | viability, T/C [10] 75.7% | viability, T/C (second compound 0.316 µM, first compound 10 µM) 45.1% | viability, T/C [11] 77% | viability, T/C [12] 72.3% | viability, T/C [13] 76.2% | viability, T/C [14] 84.2% | viability, T/C [15] 62.1% | viability, T/C (second compound 1 µM, first compound 10 µM) 41% | viability, T/C [16] 64% | viability, T/C [17] 59.5% | viability, T/C [18] 56.7% | viability, T/C [19] 47.5% | viability, T/C [20] 46.7% | viability, T/C (second compound 3.16 µM, first compound 10 µM) 38.2% | viability, T/C [21] 27.3% | viability, T/C [22] 25.9% | viability, T/C [23] 28.2% | viability, T/C [24] 28.9% | viability, T/C [25] 32% | viability, T/C (second compound 10 µM, first compound 10 µM) 29.1%
8.38 µM: IC50 (second compound 0.316 µM)
7.63 µM: IC50 (second compound 0.1 µM)
6.67 µM: IC50 (second compound 1 µM)
< 0.0316 µM: IC50 (second compound 10 µM)
1.02 µM: IC50 (second compound 3.16 µM)

COC(=O)c1ccc2c(C(=Nc3ccc(N(C)C(=O)CN4CCN(C)CC4)cc3)c3ccccc3)c(O)[nH]c2c1
6.78% [middle of 5 runs]: viability, T/C (compound 3.16 µM)
active: viability, T/C (compound 10 µM) 0.34% [middle of 5 runs]
